Measurements: the NIST ThermoML archive (doi:10.1016/j.jct.2012.03.003)

Assay: xn = mol fraction of the nth substance listed
Conditions: Liquid, Vibrating tube method

COc1cc2c(cc1O)CC1c3c(cc(O)c(OC)c3-2)CCN1C (stereo not given) [boldine] + CCCO
Conditions | mass density [kg/m3]
352.94 K, 17000 kPa, x1 = 0.0142 | 793.21
352.94 K, 18000 kPa, x1 = 0.0018 | 773.13
352.94 K, 18000 kPa, x1 = 0.0112 | 789.5
352.94 K, 18000 kPa, x1 = 0.0142 | 794.1
352.94 K, 19000 kPa, x1 = 0.0018 | 774.01
352.94 K, 19000 kPa, x1 = 0.0112 | 790.38
352.94 K, 19000 kPa, x1 = 0.0142 | 794.97
352.94 K, 20000 kPa, x1 = 0.0018 | 774.9
352.94 K, 20000 kPa, x1 = 0.0112 | 791.19
352.94 K, 20000 kPa, x1 = 0.0142 | 795.82
352.95 K, 1000 kPa, x1 = 0.0046 | 762.42
352.95 K, 1000 kPa, x1 = 0.0077 | 766.39
352.95 K, 2000 kPa, x1 = 0.0046 | 763.47
352.95 K, 2000 kPa, x1 = 0.0077 | 767.42
352.95 K, 3000 kPa, x1 = 0.0046 | 764.53
352.95 K, 3000 kPa, x1 = 0.0077 | 768.43
352.95 K, 4000 kPa, x1 = 0.0046 | 765.57
352.95 K, 4000 kPa, x1 = 0.0077 | 769.48
352.95 K, 5000 kPa, x1 = 0.0046 | 766.6
352.95 K, 5000 kPa, x1 = 0.0077 | 770.53
352.95 K, 6000 kPa, x1 = 0.0046 | 767.63
352.95 K, 6000 kPa, x1 = 0.0077 | 771.55
352.95 K, 7000 kPa, x1 = 0.0046 | 768.64
352.95 K, 7000 kPa, x1 = 0.0077 | 772.55
352.95 K, 8000 kPa, x1 = 0.0046 | 769.68
352.95 K, 8000 kPa, x1 = 0.0077 | 773.58
352.95 K, 9000 kPa, x1 = 0.0046 | 770.67
352.95 K, 9000 kPa, x1 = 0.0077 | 774.57
352.95 K, 10000 kPa, x1 = 0.0046 | 771.67
352.95 K, 10000 kPa, x1 = 0.0077 | 775.56
352.95 K, 11000 kPa, x1 = 0.0046 | 772.65
352.95 K, 11000 kPa, x1 = 0.0077 | 776.53
352.95 K, 12000 kPa, x1 = 0.0046 | 773.64
352.95 K, 12000 kPa, x1 = 0.0077 | 777.51
352.95 K, 13000 kPa, x1 = 0.0046 | 774.6
352.95 K, 13000 kPa, x1 = 0.0077 | 778.48
352.95 K, 14000 kPa, x1 = 0.0046 | 775.56
352.95 K, 14000 kPa, x1 = 0.0077 | 779.42
352.95 K, 15000 kPa, x1 = 0.0046 | 776.52
352.95 K, 15000 kPa, x1 = 0.0077 | 780.35
352.95 K, 16000 kPa, x1 = 0.0046 | 777.42
352.95 K, 16000 kPa, x1 = 0.0077 | 781.26
352.95 K, 17000 kPa, x1 = 0.0046 | 778.33
352.95 K, 17000 kPa, x1 = 0.0077 | 782.19
352.95 K, 18000 kPa, x1 = 0.0046 | 779.23
352.95 K, 18000 kPa, x1 = 0.0077 | 783.07
352.95 K, 19000 kPa, x1 = 0.0046 | 780.13
352.95 K, 19000 kPa, x1 = 0.0077 | 783.97
352.95 K, 20000 kPa, x1 = 0.0046 | 780.98
352.95 K, 20000 kPa, x1 = 0.0077 | 784.83
362.91 K, 1000 kPa, x1 = 0.0142 | 768.06
362.91 K, 2000 kPa, x1 = 0.0142 | 769.19
362.91 K, 3000 kPa, x1 = 0.0142 | 770.27
362.91 K, 4000 kPa, x1 = 0.0142 | 771.41
362.91 K, 5000 kPa, x1 = 0.0142 | 772.43
362.91 K, 6000 kPa, x1 = 0.0142 | 773.54
362.91 K, 7000 kPa, x1 = 0.0142 | 774.62
362.91 K, 8000 kPa, x1 = 0.0142 | 775.73
362.91 K, 9000 kPa, x1 = 0.0142 | 776.73
362.91 K, 10000 kPa, x1 = 0.0142 | 777.77
362.91 K, 11000 kPa, x1 = 0.0142 | 778.78
362.91 K, 12000 kPa, x1 = 0.0142 | 779.82
362.91 K, 13000 kPa, x1 = 0.0142 | 780.81
362.91 K, 14000 kPa, x1 = 0.0142 | 781.79
362.91 K, 15000 kPa, x1 = 0.0142 | 782.77
362.91 K, 16000 kPa, x1 = 0.0142 | 783.72
362.91 K, 17000 kPa, x1 = 0.0142 | 784.68
362.91 K, 18000 kPa, x1 = 0.0142 | 785.6
362.91 K, 19000 kPa, x1 = 0.0142 | 786.52
362.91 K, 20000 kPa, x1 = 0.0142 | 787.4
362.92 K, 1000 kPa, x1 = 0.0046 | 752.84
362.92 K, 1000 kPa, x1 = 0.0077 | 756.81
362.92 K, 2000 kPa, x1 = 0.0046 | 753.97
362.92 K, 2000 kPa, x1 = 0.0077 | 757.93
362.92 K, 3000 kPa, x1 = 0.0046 | 755.11
362.92 K, 3000 kPa, x1 = 0.0077 | 759.06
362.92 K, 4000 kPa, x1 = 0.0046 | 756.24
362.92 K, 4000 kPa, x1 = 0.0077 | 760.16
362.92 K, 5000 kPa, x1 = 0.0046 | 757.34
362.92 K, 5000 kPa, x1 = 0.0077 | 761.28
362.92 K, 6000 kPa, x1 = 0.0046 | 758.46
362.92 K, 6000 kPa, x1 = 0.0077 | 762.37
362.92 K, 7000 kPa, x1 = 0.0046 | 759.55
362.92 K, 7000 kPa, x1 = 0.0077 | 763.46
362.92 K, 8000 kPa, x1 = 0.0046 | 760.63
362.92 K, 8000 kPa, x1 = 0.0077 | 764.54
362.92 K, 9000 kPa, x1 = 0.0046 | 761.7
362.92 K, 9000 kPa, x1 = 0.0077 | 765.61
362.92 K, 10000 kPa, x1 = 0.0046 | 762.78
362.92 K, 10000 kPa, x1 = 0.0077 | 766.65
362.92 K, 11000 kPa, x1 = 0.0046 | 763.79
362.92 K, 11000 kPa, x1 = 0.0077 | 767.68
362.92 K, 12000 kPa, x1 = 0.0046 | 764.85
362.92 K, 12000 kPa, x1 = 0.0077 | 768.72
362.92 K, 13000 kPa, x1 = 0.0046 | 765.87
362.92 K, 13000 kPa, x1 = 0.0077 | 769.74
362.92 K, 14000 kPa, x1 = 0.0046 | 766.88
362.92 K, 14000 kPa, x1 = 0.0077 | 770.74
362.92 K, 15000 kPa, x1 = 0.0046 | 767.86
362.92 K, 15000 kPa, x1 = 0.0077 | 771.74
362.92 K, 16000 kPa, x1 = 0.0046 | 768.85
362.92 K, 16000 kPa, x1 = 0.0077 | 772.72
362.92 K, 17000 kPa, x1 = 0.0046 | 769.81
362.92 K, 17000 kPa, x1 = 0.0077 | 773.68
362.92 K, 18000 kPa, x1 = 0.0046 | 770.76
362.92 K, 18000 kPa, x1 = 0.0077 | 774.6
362.92 K, 19000 kPa, x1 = 0.0046 | 771.7
362.92 K, 19000 kPa, x1 = 0.0077 | 775.55
362.92 K, 20000 kPa, x1 = 0.0046 | 772.56
362.92 K, 20000 kPa, x1 = 0.0077 | 776.45
362.93 K, 1000 kPa, x1 = 0.0112 | 763.51
362.93 K, 2000 kPa, x1 = 0.0112 | 764.63
362.93 K, 3000 kPa, x1 = 0.0112 | 765.74
362.93 K, 4000 kPa, x1 = 0.0112 | 766.83
362.93 K, 5000 kPa, x1 = 0.0112 | 767.93
362.93 K, 6000 kPa, x1 = 0.0112 | 769
362.93 K, 7000 kPa, x1 = 0.0112 | 770.08
362.93 K, 8000 kPa, x1 = 0.0112 | 771.14
362.93 K, 9000 kPa, x1 = 0.0112 | 772.39
362.93 K, 10000 kPa, x1 = 0.0112 | 773.24
362.93 K, 11000 kPa, x1 = 0.0112 | 774.29
362.93 K, 12000 kPa, x1 = 0.0112 | 775.28
362.93 K, 13000 kPa, x1 = 0.0112 | 776.29
362.93 K, 14000 kPa, x1 = 0.0112 | 777.28
362.93 K, 15000 kPa, x1 = 0.0112 | 778.25
362.93 K, 16000 kPa, x1 = 0.0112 | 779.21
362.93 K, 17000 kPa, x1 = 0.0112 | 780.16
362.93 K, 18000 kPa, x1 = 0.0112 | 781.11
362.93 K, 19000 kPa, x1 = 0.0112 | 782.03
362.93 K, 20000 kPa, x1 = 0.0112 | 782.93
362.94 K, 1000 kPa, x1 = 0.0018 | 746.61
362.94 K, 2000 kPa, x1 = 0.0018 | 747.75
362.94 K, 3000 kPa, x1 = 0.0018 | 748.91
362.94 K, 4000 kPa, x1 = 0.0018 | 750.05
362.94 K, 5000 kPa, x1 = 0.0018 | 751.17
362.94 K, 6000 kPa, x1 = 0.0018 | 752.28
362.94 K, 7000 kPa, x1 = 0.0018 | 753.38
362.94 K, 8000 kPa, x1 = 0.0018 | 754.49
362.94 K, 9000 kPa, x1 = 0.0018 | 755.54
362.94 K, 10000 kPa, x1 = 0.0018 | 756.62
362.94 K, 11000 kPa, x1 = 0.0018 | 757.69
362.94 K, 12000 kPa, x1 = 0.0018 | 758.72
362.94 K, 13000 kPa, x1 = 0.0018 | 759.77
362.94 K, 14000 kPa, x1 = 0.0018 | 760.8
362.94 K, 15000 kPa, x1 = 0.0018 | 761.77
362.94 K, 16000 kPa, x1 = 0.0018 | 762.79
362.94 K, 17000 kPa, x1 = 0.0018 | 763.76
362.94 K, 18000 kPa, x1 = 0.0018 | 764.68
362.94 K, 19000 kPa, x1 = 0.0018 | 765.63
362.94 K, 20000 kPa, x1 = 0.0018 | 766.58
